Source: patent US20240025862A1, “SUBSTITUTED N-PHENYLURACILS AND SALTS THEREOF, AND USE THEREOF AS HERBICIDAL ACTIVE SUBSTANCES” (Bayer Aktiengesellschaft, priority 2020, published 2024)

Legend:
Format in all cases: in vivo
[1] = system: Matricaria inodora (MATIN); experiment: Post-emergence herbicidal action, greenhouse pot test (also comparative test C)
Experimental: (§1) Seeds of monocotyledonous and dicotyledonous weeds and crop plants were placed in sandy loam in plastic or wood-fiber pots, covered with soil and cultivated in a greenhouse under controlled growth conditions. 2 to 3 weeks after sowing, the test plants were treated at the one-leaf stage. The compounds of the invention, formulated in the form of wettable powders (WP) or as emulsion concentrates (EC), were then sprayed onto the green parts of the plants as aqueous suspension or emulsion with addition of 0.5% additive at a water application rate of 600 l/ha (converted). After the test plants had been kept in the greenhouse under optimum growth conditions for about 3 weeks, the activity of the preparations was rated visually in comparison to untreated controls. For example, 100% activity=the plants have died, 0% activity=like control plants.
(§2) Tables A1 to A14 below show the effects of selected compounds of the general formula (I) according to Tables I.1 to I.33 on various harmful plants and at an application rate corresponding to 20 g/ha and less, which were obtained by the experimental method specified above. The appendices “a”, “b” and “c” give differentiation by different dosage with otherwise the same harmful plants tested.
(§3) C. Comparative Herbicidal Action and Crop Plant Compatibility of Two Inventive Compounds (I.7-1 and I.7-115) with a Compound of Similar Structure Known from the Literature (WO2002/098227, a-17 and EP1106607, 3-14) in Post-Emergence Treatment.
(§4) Tables C1-C4 below show the effects of two inventive compounds (I.7-1 and I.7-115) together with a compound of similar structure known from the literature (a-17 in WO2002/098227, and 3-14 in EP1106607) in different crop plants at an application rate corresponding to 5 g/ha or less, which have been obtained by the aforementioned experimental procedure.

Oryza sativa (ORYSA) = experiment: Post-emergence crop plant compatibility, greenhouse pot test (also comparative test C); details: for Post-emergence action against ORYSA (crop plant compatibility): vs untreated controls
Experimental: as §1
(§5) The observed effects on selected crop plants are reported here in comparison to the untreated controls (values in %). The appendices “a”, “b” and “c” give differentiation by different dosage with otherwise the same crop plants tested.
as §3

[2] = system: Abutilon theophrasti (ABUTH); experiment: Post-emergence herbicidal action, greenhouse pot test; details: rated visually after about 3 weeks vs untreated controls, 100% = plants have died
Experimental: as §1, §2

[3] = system: Polygonum convolvulus (POLCO); experiment: as above
Experimental: as §1, §2

[4] = system: Amaranthus retroflexus (AMARE); experiment: as above; details: rated visually after about 3 weeks vs untreated controls, 100% = plants have died
Experimental: as §1, §2

Veronica persica (VERPE) = experiment: as above
Experimental: as §1, §2

Viola tricolor (VIOTR) = experiment: as above
Experimental: as §1, §2

[5] = system: Pharbitis purpurea (PHBPU); experiment: as above
Experimental: as §1, §2

[6] = system: Triticum aestivum (TRZAS); experiment: Post-emergence crop plant compatibility, greenhouse pot test; details: vs untreated controls
Experimental: as §1, §5

[7] = system: Echinochloa crus-galli (ECHCG); experiment: Post-emergence herbicidal action, greenhouse pot test (also comparative test C)
Experimental: as §1, §2, §3, §4

[8] = system: Alopecurus myosuroides (ALOMY); experiment: as above; details: rated visually after about 3 weeks vs untreated controls, 100% = plants have died
Experimental: as §1, §2, §3, §4

Setaria viridis (SETVI) = experiment: as above; details: for Post-emergence action against SETVI: 20 g/ha
Experimental: as §1, §2, §3, §4

Post-emergence action against TRZAS (crop plant compatibility) ([6]; 1.25 g/ha) [%] | SMILES | Post-emergence action against MATIN in % ([1]; dosage 5 g/ha) [%] | Post-emergence action at 5 g/ha against ABUTH in % [2] [%] | Post-emergence action at 20 g/ha against ABUTH in % [2] [%] | Post-emergence action against POLCO in % ([3]; dosage 5 g/ha) [%] | Post-emergence action against POLCO in % ([3]; dosage 20 g/ha) [%] | Post-emergence action at 1.25 g/ha against AMARE in % [4] [%] | Post-emergence action at 5 g/ha against AMARE in % [4] [%] | Post-emergence action at 20 g/ha against AMARE in % [4] [%] | Post-emergence action against VERPE (Veronica persica (VERPE); 1.25 g/ha) [%] | Post-emergence action against VERPE (Veronica persica (VERPE); 5 g/ha) [%] | Post-emergence action against VERPE (Veronica persica (VERPE); 20 g/ha) [%] | Post-emergence action against VIOTR (Viola tricolor (VIOTR); 5 g/ha) [%] | Post-emergence action against VIOTR (Viola tricolor (VIOTR); 20 g/ha) [%] | Post-emergence action against PHBPU in % ([5]; dosage 1.25 g/ha) [%] | Post-emergence action against PHBPU in % ([5]; dosage 5 g/ha) [%] | Post-emergence action against PHBPU in % ([5]; dosage 20 g/ha) [%] | Post-emergence action against MATIN in % ([1]; dosage 20 g/ha) [%] | Post-emergence action against ECHCG in % ([7]; dosage 20 g/ha) [%] | Post-emergence action at 20 g/ha against ALOMY in % [8] [%] | further results
– | Cn1c(C(F)(F)F)cc(=O)n(-c2cc(Oc3ccccc3OCC(=O)OCC3CCCO3)c(Cl)cc2F)c1=O (racemic) [Example 1.7-71] | 100 | – | – | – | – | – | – | – | – | – | – | – | – | – | – | – | – | – | – | –
0 | COCCOCCOC(=O)COc1ccccc1Oc1cc(-n2c(=O)cc(C(F)(F)F)n(C)c2=O)c(F)cc1C#N [I.9-23] | 80 | 100 | 100 | 100 | 100 | 100 | 100 | 100 | 80 | 100 | 100 | 100 | 100 | 80 | 100 | 100 | 100 | 100 | 80 | Post-emergence action against ORYSA (crop plant compatibility) (Oryza sativa (ORYSA); 1.25 g/ha): 0%; Post-emergence action against ORYSA (crop plant compatibility) (Oryza sativa (ORYSA); 5 g/ha): 0%; Post-emergence action against ORYSA in % (Oryza sativa (ORYSA); 20 g/ha, crop plant compatibility): 20%; Post-emergence action at 1.25 g/ha against ABUTH in % [2]: 80%; Post-emergence action against VIOTR (Viola tricolor (VIOTR); 1.25 g/ha): 100%; Post-emergence action against TRZAS (crop plant compatibility) ([6]; 5 g/ha): 20%; Post-emergence action against TRZAS (crop plant compatibility) ([6]; 20 g/ha): 20%; Post-emergence action against SETVI (Setaria viridis (SETVI)): 100%; Post-emergence action against SETVI in % (Setaria viridis (SETVI); dosage 1.25 g/ha): 100%; Post-emergence action against SETVI in % (Setaria viridis (SETVI); dosage 5 g/ha): 100%
20 | COCCOC(=O)COc1cccc(F)c1Oc1cc(-n2c(=O)cc(C(F)(F)F)n(C)c2=O)c(F)cc1Cl [I.19-1] | 90 | 100 | 100 | 100 | 100 | 100 | 100 | 100 | 100 | 100 | 100 | 100 | 100 | 100 | 100 | 100 | 100 | 100 | 100 | Post-emergence action at 1.25 g/ha against ABUTH in % [2]: 100%; Post-emergence action against VIOTR (Viola tricolor (VIOTR); 1.25 g/ha): 100%; Post-emergence action at 1.25 g/ha against ECHCG in % ([7]; 1.25 g/ha, rated visually after about 3 weeks vs untreated controls, 100% = plants have died): 100%; Post-emergence action against ECHCG in % ([7]; dosage 5 g/ha): 100%; Post-emergence action against SETVI (Setaria viridis (SETVI)): 100%; Post-emergence action against SETVI in % (Setaria viridis (SETVI); dosage 1.25 g/ha): 100%; Post-emergence action against SETVI in % (Setaria viridis (SETVI); dosage 5 g/ha): 100%
10 | COCCOCCOC(=O)COc1cccc(F)c1Oc1cc(-n2c(=O)cc(C(F)(F)F)n(C)c2=O)c(F)cc1Cl [I.19-23] | 100 | 100 | 100 | 100 | 100 | 100 | 100 | 100 | 100 | 100 | 100 | 100 | 100 | 100 | 100 | 100 | 100 | 100 | 100 | Post-emergence action against ORYSA (crop plant compatibility) (Oryza sativa (ORYSA); 1.25 g/ha): 10%; Post-emergence action against POLCO in % ([3]; dosage 1.25 g/ha): 100%; Post-emergence action against ECHCG in % ([7]; dosage 5 g/ha): 100%; Post-emergence action at 5 g/ha against ALOMY in % ([8]; 5 g/ha): 80%; Post-emergence action against SETVI (Setaria viridis (SETVI)): 100%; Post-emergence action against SETVI in % (Setaria viridis (SETVI); dosage 1.25 g/ha): 100%; Post-emergence action against SETVI in % (Setaria viridis (SETVI); dosage 5 g/ha): 100%
